The supplement of paper PMC10307832

Assays:
Assay in all cases: relative viability (nuclei count vs DMSO), 5 days (fraction); higher = more cells survive
NCI-H441 = system: NCI-H441
Method in brief: (§1)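 Cells from lung cancer lines were seeded into 1536-well plates and, one day later, dosed by pin tool. Treatments were either a single drug or a fixed dose of an anchor drug with five library-drug doses (not always all listed) in √10 steps. After 5 days, nuclei were stained in a one-step fixation (final 0.05% Triton X-100, 1% formaldehyde, 1 ug/ml Hoechst) and counted on 4× images, and relative viability is the treated-to-vehicle nuclei ratio, as the median of duplicate plates.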

NCI-H1355 = system: NCI-H1355
Method in brief: as §1

NCI-H1975 = system: NCI-H1975
Method in brief: as §1

LOU-NH91 = system: LOU-NH91
Method in brief: as §1

HCC-366 = system: HCC-366
Method in brief: as §1

NCI-H838 = system: NCI-H838
Method in brief: as §1

NCI-H2023 = system: NCI-H2023
Method in brief: as §1

NCI-H1734 = system: NCI-H1734
Method in brief: as §1

COR-L23 = system: COR-L23
Method in brief: as §1

LU99A = system: LU99A
Method in brief: as §1

NCI-H460 = system: NCI-H460
Method in brief: as §1

NCI-H1793 = system: NCI-H1793
Method in brief: as §1

CAL-12T = system: CAL-12T
Method in brief: as §1

NCI-H1650 = system: NCI-H1650
Method in brief: as §1

NCI-H1651 = system: NCI-H1651
Method in brief: as §1

BEN = system: BEN
Method in brief: as §1

SK-LU-1 = system: SK-LU-1
Method in brief: as §1

NCI-H1437 = system: NCI-H1437
Method in brief: as §1

NCI-H2085 = system: NCI-H2085
Method in brief: as §1

`COc1cc2nccc(Oc3ccc(NC(=O)Nc4cc(C)on4)c(Cl)c3)c2cc1OC` [Tivozanib] + CC1(C)CCC(c2ccc(Cl)cc2)=C(CN2CCN(c3ccc(C(=O)NS(=O)(=O)c4ccc(N[C@H](CCN5CCOCC5)CSc5ccccc5)c(S(=O)(=O)C(F)(F)F)c4)cc3)CC2)C1 [Navitoclax] (partner 0.5 µM) gave a relative viability (NCI-H441; first compound 0.005 µM) of 0.473, a relative viability (NCI-H441; first compound 0.01581 µM) of 0.424 and a relative viability (NCI-H441; first compound 0.05 µM) of 0.747. For the same compound, the relative viability (NCI-H441; first compound 0.1581 µM) was 0.566, the relative viability (NCI-H441; first compound 0.5 µM) was 0.545 and the relative viability (NCI-H1355; first compound 0.005 µM) was 0.844. It also gave a relative viability (NCI-H1355; first compound 0.01581 µM) of 0.989, a relative viability (NCI-H1355; first compound 0.05 µM) of 0.996 and a relative viability (NCI-H1355; first compound 0.5 µM) of 1. It also gave a relative viability (NCI-H1975; first compound 0.005 µM) of 1.1, a relative viability (NCI-H1975; first compound 0.01581 µM) of 1.19 and a relative viability (NCI-H1975; first compound 0.05 µM) of 1.09. It also gave a relative viability (NCI-H1975; first compound 0.1581 µM) of 1.06, a relative viability (NCI-H1975; first compound 0.5 µM) of 0.884 and a relative viability (LOU-NH91; first compound 0.005 µM) of 0.641. It also gave a relative viability (LOU-NH91; first compound 0.01581 µM) of 0.715, a relative viability (LOU-NH91; first compound 0.05 µM) of 0.706 and a relative viability (LOU-NH91; first compound 0.1581 µM) of 0.675. It also gave a relative viability (LOU-NH91; first compound 0.5 µM) of 0.705, a relative viability (HCC-366; first compound 0.005 µM) of 1.05 and a relative viability (HCC-366; first compound 0.01581 µM) of 1.05. It also gave a relative viability (HCC-366; first compound 0.05 µM) of 0.947, a relative viability (HCC-366; first compound 0.1581 µM) of 1.01 and a relative viability (HCC-366; first compound 0.5 µM) of 1.08. It also gave a relative viability (NCI-H838; first compound 0.005 µM) of 1.09, a relative viability (NCI-H838; first compound 0.01581 µM) of 1.16 and a relative viability (NCI-H838; first compound 0.05 µM) of 1.2. For the same compound, the relative viability (NCI-H838; first compound 0.5 µM) was 1.12, the relative viability (NCI-H2023; first compound 0.005 µM) was 0.909 and the relative viability (NCI-H2023; first compound 0.01581 µM) was 1.02. For the same compound, the relative viability (NCI-H2023; first compound 0.05 µM) was 1.04, the relative viability (NCI-H2023; first compound 0.1581 µM) was 0.962 and the relative viability (NCI-H2023; first compound 0.5 µM) was 0.954. It also gave a relative viability (NCI-H1734; first compound 0.005 µM) of 0.865, a relative viability (NCI-H1734; first compound 0.01581 µM) of 0.804 and a relative viability (NCI-H1734; first compound 0.05 µM) of 0.823. For the same compound, the relative viability (NCI-H1734; first compound 0.1581 µM) was 0.734, the relative viability (NCI-H1734; first compound 0.5 µM) was 0.82 and the relative viability (COR-L23; first compound 0.005 µM) was 0.955. For the same compound, the relative viability (COR-L23; first compound 0.01581 µM) was 0.998, the relative viability (COR-L23; first compound 0.05 µM) was 1.04 and the relative viability (COR-L23; first compound 0.1581 µM) was 0.935. The relative viability (COR-L23; first compound 0.5 µM) was 0.817, the relative viability (LU99A; first compound 0.005 µM) was 0.795 and the relative viability (LU99A; first compound 0.01581 µM) was 0.749. It also gave a relative viability (LU99A; first compound 0.05 µM) of 0.849, a relative viability (LU99A; first compound 0.5 µM) of 0.794 and a relative viability (NCI-H460; first compound 0.005 µM) of 1.09. For the same compound, the relative viability (NCI-H460; first compound 0.01581 µM) was 1.24, the relative viability (NCI-H460; first compound 0.05 µM) was 1.13 and the relative viability (NCI-H460; first compound 0.1581 µM) was 1.17. It also gave a relative viability (NCI-H460; first compound 0.5 µM) of 1.1, a relative viability (NCI-H1793; first compound 0.005 µM) of 0.351 and a relative viability (NCI-H1793; first compound 0.01581 µM) of 0.466. It also gave a relative viability (NCI-H1793; first compound 0.05 µM) of 0.413, a relative viability (NCI-H1793; first compound 0.5 µM) of 0.438 and a relative viability (CAL-12T; first compound 0.005 µM) of 1.11. It also gave a relative viability (CAL-12T; first compound 0.01581 µM) of 1.19, a relative viability (CAL-12T; first compound 0.05 µM) of 1.18 and a relative viability (CAL-12T; first compound 0.5 µM) of 0.94. For the same compound, the relative viability (NCI-H1650; first compound 0.005 µM) was 1.1, the relative viability (NCI-H1650; first compound 0.01581 µM) was 1.2 and the relative viability (NCI-H1650; first compound 0.05 µM) was 1.15. For the same compound, the relative viability (NCI-H1650; first compound 0.1581 µM) was 1.28, the relative viability (NCI-H1650; first compound 0.5 µM) was 1.53 and the relative viability (NCI-H1651; first compound 0.005 µM) was 0.979. It also gave a relative viability (NCI-H1651; first compound 0.01581 µM) of 0.934, a relative viability (NCI-H1651; first compound 0.05 µM) of 1.09 and a relative viability (NCI-H1651; first compound 0.1581 µM) of 0.983. It also gave a relative viability (NCI-H1651; first compound 0.5 µM) of 1.15, a relative viability (BEN; first compound 0.005 µM) of 0.0616 and a relative viability (BEN; first compound 0.01581 µM) of 0.0524. It also gave a relative viability (BEN; first compound 0.05 µM) of 0.0639, a relative viability (BEN; first compound 0.5 µM) of 0.0625 and a relative viability (SK-LU-1; first compound 0.005 µM) of 0.837. It also gave a relative viability (SK-LU-1; first compound 0.01581 µM) of 0.862, a relative viability (SK-LU-1; first compound 0.05 µM) of 1.1 and a relative viability (SK-LU-1; first compound 0.1581 µM) of 0.666. It also gave a relative viability (SK-LU-1; first compound 0.5 µM) of 0.806, a relative viability (NCI-H1437; first compound 0.005 µM) of 1.06 and a relative viability (NCI-H1437; first compound 0.01581 µM) of 1.12. For the same compound, the relative viability (NCI-H1437; first compound 0.05 µM) was 1.07, the relative viability (NCI-H1437; first compound 0.1581 µM) was 1.02 and the relative viability (NCI-H1437; first compound 0.5 µM) was 1.02. For the same compound, the relative viability (NCI-H2085; first compound 0.005 µM) was 1.07, the relative viability (NCI-H2085; first compound 0.01581 µM) was 1.1 and the relative viability (NCI-H2085; first compound 0.05 µM) was 1.17. For the same compound, the relative viability (NCI-H2085; first compound 0.1581 µM) was 1.04 and the relative viability (NCI-H2085; first compound 0.5 µM) was 1.14.
